Measured values reported in BindingDB's records for patent US10087181 (Curegenix, 2018).

These molecules were tested against Protein Wnt-3a (Human, UniProt P56704) (assay: WNT pathway reporter gene assay).
Procedure: NIH3T3 mouse fibroblast cells (American Type Culture Collection, Manassas, Va.) were transfected with a plasmid containing a luciferase gene driven by 5 copies of TCF elements. Stale cells selected with 1 μg/mL of Zeocin (Gibco/Invitrogen, Carlsbad, Calif.) are cultured in Dulbecco's modified Eagle's medium (Invitrogen, Carlsbad, Calif.) supplemented with 10% FBS (Invitrogen), 50 unit/mL penicillin and 50 μg/mL of streptomycin (Invitrogen) at 37° C. with 5% CO2 in air atmosphere. […] After 16 hours, the firefly luciferase activities are measured with the Steady-Glo Luciferase Assay System (Promega). The cells were treated with different concentrations of compounds of this invention during the co-culture. […] To normalize for cell quantity and viability, CellTiter Glo assay is next performed in a duplicate plate.

Sequence of Protein Wnt-3a (P56704 whole entry): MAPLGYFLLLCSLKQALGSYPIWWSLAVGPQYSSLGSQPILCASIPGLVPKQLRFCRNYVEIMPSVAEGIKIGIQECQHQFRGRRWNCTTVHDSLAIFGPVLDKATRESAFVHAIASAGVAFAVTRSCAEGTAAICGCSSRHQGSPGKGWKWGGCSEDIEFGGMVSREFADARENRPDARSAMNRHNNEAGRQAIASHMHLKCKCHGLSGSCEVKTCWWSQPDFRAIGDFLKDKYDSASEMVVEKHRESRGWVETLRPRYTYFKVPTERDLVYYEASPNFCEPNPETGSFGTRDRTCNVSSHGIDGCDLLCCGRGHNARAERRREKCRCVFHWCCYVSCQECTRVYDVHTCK

Row | SMILES | IC50
1 | Cc1cc(-c2cc3ccnc(NCc4ccc(-c5ccnc(C)c5)c(C)c4)c3cn2)ccn1 [US10087181, Compound 2] | < 3 nM
2 | Cc1cc(-c2ccc(CNc3nccc4cc(-c5ccnc(C)c5)ncc34)cc2)ccn1 [US10087181, Compound 1] | < 3 nM
3 | Cc1cc(-c2cc3ccnc(NCc4ccc(-c5ccnc(F)c5)c(F)c4)c3cn2)ccn1 [US10087181, Compound 28] | < 3 nM
4 | Cc1cc(-c2ncc(CNc3nccc4cc(-c5cnccn5)ccc34)cc2C)ccn1 [US10087181, Compound 70] | < 3 nM
5 | Cc1cc(-c2ccc(CNc3nccc4cc(-c5cnccn5)ncc34)cc2)ccn1 [US10087181, Compound 35] | < 3 nM
